Test results reported in US9682026B2, “Oral care product and methods of use and manufacture thereof” (Colgate-Palmolive Company, priority 2008, dated 2017).

test system: S. sanguis; test: Ammonia production by S. sanguis at pH 4.0; type: cell-based; conditions: 5 millimolar amino acid, 0.1% sucrose, pH 4.0, 37° C., 30 minutes; mean of 6 trials
Procedure: An overnight culture of S. sanguis was grown at 37° C. in trypticase soy broth (Becton Dickinson, Sparks, Md.). The culture was centrifuged at 5,000 rpm for 5 minutes at 1 milliliter at a time into preweighed tubes in order to accumulate approximately 5 milligrams of wet pellet weight. The pellet was then resuspended into 20 millimolar potassium phosphate buffer (J T Baker, Phillipsburg, N.J.), pH 4.0, to simulate a stressed environment for the bacterial cell where ammonia would be produced for survival. The final concentration was 5 milligram per milliliter. To this final concentration, a 5 millimolar final concentration of L-arginine, L-citrulline, or L-ornithine was added along with a 0.1% final concentration of sucrose (VWR, West Chester, Pa.). This mixture was then incubated at 37° C. in a shaking water bath for 30 minutes before ammonia production was determined.
In order to analyze for ammonia, an Ammonia Assay kit was used from Diagnostic Chemicals Limited (Oxford, Conn.). The intended use of this specific kit is for the in vitro quantification of ammonia in plasma, but the procedure was modified in order to determine and quantify the ammonia production in plaque and/or bacteria.

Row | SMILES | Ammonia (ppm), Mean [ppm]
1 | N=C(N)NCCC[C@H](N)C(=O)O [L-Arginine, L-arginine] | 1.06
2 | NC(=O)NCCC[C@H](N)C(=O)O [L-Citrulline, L-citrulline] | 0.951
3 | NCCC[C@H](N)C(=O)O [L-Ornithine, L-ornithine] | 0.134
